Data taken from patent US20020127208A1, “Method of transplantation using chemotherapy-treated allogeneic cells that enhance immune responses without graft versus host disease” (priority 2000, published 2002).

Key:
alloreactive T-cells = assay: Limiting dilution assay of alloreactive cell frequency; settings: 20 μg/ml, B10.BR responders stimulated with C57.BL6
Experimental: Limiting dilution assay of B10.BR responder cells stimulated with C57.BL6.
The frequency of alloreactive cells was measured using a limiting dilution assay . Briefly, 20,000 responder cells were three-fold serially diluted in 96-well plates with 12 replicate wells per dilution. 10,000 stimulator cells were added to each well in a combined total volume of 150 μl complete media. After 7 days in co-culture, the proliferation of responder cells was measured using tritiated thymidine incorporation. The number of responder cells was plotted versus the natural logarithm of the percentage of negative wells (i.e., wells with cpm readings lesser than media control). The reciprocal of the slope of the regression line yielded the frequency of alloreactive T-cells.

MCMV [1] = assay: Adoptive immunotherapy against MCMV lethality, 10x10^6 lymphocytes, B/6 to F1 BMT; format: in vivo, mouse; settings: day +120 post-BMT, MCMV infected; for % survival, immune splenocytes / Survivors/Total, immune splenocytes: 10×10^6 MCMV-immune lymphocytes; for % survival, naive splenocytes / Survivors/Total, naive splenocytes: 10×10^6 naive lymphocytes
Experimental: Spleens were removed from either untreated PepBoy mice (naive donors), or those that had been inoculated with 10^5-10^6 PFU MCMV 2-4 months earlier (immune donors).
To generate irradiated splenocytes for adoptive immunotherapy, cells were harvested after 24 hour culture and exposed to a single fraction of radiation from a ^137Cs source for a total of 7.5 Gy. S-59 psoralen (Cerus Corporation, Concord, Calif.) was added to some splenocytes cultures at the end of the 24 hour culture period at a final concentration of 2 nM. The cells in a T75 tissue culture flask were then placed on a UVA (320-400 nm) illumination device with a nominal fluorescence of 7 mW (Cole Parmer, Vernon Hill, Ill.) and illuminated for 5 mins to achieve 3.0 J/cm^2 equivalent UVA dose. Control (untreated) splenocytes were harvested after 24 hour culture without other interventions. For all four groups, lymphocytes were washed at the end of the culture/treatment period and the appropriate dosage of viable cells was used for adoptive immunotherapy.
One day prior to transplant, recipient F1 mice were conditioned using a ^137Cs source at a dose rate of 1.24 Gy/min. Two doses of 5.5 Gy were administered, 3 hours apart, for a total lethal dose of 11 Gy. Irradiated mice were given free access to drinking water containing oral antibiotics (1.1 mg/ml neomycin sulfate and 1000 U/ml polymyxin sulfate; Sigma, St. Louis, Mo.) starting 3 days prior to irradiation and continuing through the end of the experimental period. 5×10^6 T-cell depleted (TCD) BM cells in a total volume of 0.2 ml HBSS/FBS were injected into the tail vein of F1 mice on the day following irradiation. In adoptive immunotherapy experiments, the appropriate number of donor splenocytes were mixed with TCD BM cells and injected simultaneously in 0.2 ml total volume. Two hours after BMT, mice were injected intraperitoneally with appropriate MCMV inocula diluted in DMEM/CS. Control (uninfected) mice received DMEM/CS alone. Mice were evaluated daily for morbidity and mortality. The development of clinical GvHD was prospectively monitored by weighing mice twice weekly, as well as observing for alopecia and/or ruffled fur, diarrhea, and decreased activity with a “hunched over” appearance. Moribund mice were euthanized based on Emory IACUC end-points and protocols.
Lymphocytes were prepared from the spleens of naïve or MCMV-immune B/6 donors and 10×10^6 or 30×10^6 were infused IV at the time of B/6→F1 allogeneic BMT. […] Some groups of mice were subsequently infected with 2×10^4 PFU MCMV at two hours after BMT, a viral inoculum expected to produce 90-100% lethality (FIG. 8B).
Table 2: Effect of adoptive immunotherapy on the survival of B/6→F1 BMT mice following MCMV infection. At the time of BMT, mice were infused with 10×10^6 splenic lymphocytes from B/6 mice that were either previously-infected with MCMV (“Immune splenocytes”) or uninfected (“Naive splenocytes”). […] Some mice received lymphocytes that were untreated. The table lists the number of surviving mice (at day +120 post-BMT) and the total number of mice in each group, as well as the percentage survival.

splenocytes = assay: Splenocyte viability in 24 hour culture
Experimental: Splenocytes were harvested by perfusing spleens with sterile HBSS/FBS, and washed before culture. Splenocytes (10×10^6 cells/ml) were incubated in complete media (RPMI supplemented with 10% heat-inactivated FBS, 50 μM 2-mercaptoethanol, 100 Units/ml penicillin, 100 ug/ml streptomycin, 292 μg/ml L-glutamine, 1 mM sodium pyruvate, and non-essential amino acids added according to the manufacturer's specifications (Biowhittaker, Walkersville, Md.)). […] Overall viability was assessed by counting ethidium bromide/acridine orange stained cells under fluorescence microscopy. Survival of T-cell populations was determined by flow cytometric analyses using fluorochrome conjugated antibodies against mouse CD3, CD4 and CD8. Propidium iodide stain was used to exclude dead cells from the analysis.
The data represent the mean ±SEM for 4 individual experiments.

[2] = test system: lethally irradiated B10.BR (H2k) recipient mice; assay: MHC mis-matched C57.BL6 to B10.BR transplant model: survival, GvHD (weight), donor engraftment; format: in vivo, mouse; settings: splenocytes treated with 20 μg/ml vs control or other doses (0, 3, 10, 40 μg/ml)
Source text: Lethally irradiated (11 Gy) B10.BR (H2^k) recipient mice were transplanted with 1×10^6 BL6 (H2^b) TCD-BM cells (n=40, thin line). […] Survival and weight change data are derived from 2-6 individual experiments using 5 or 10 animals per group. Kaplan-Meier survival determinations are shown in A (ticks indicate time points at which individual experiments were terminated). Trend lines representing the mean weight change (percent body weight) for each group are shown in B. Trend lines were calculated using a moving average with a periodicity of 3.
1×10^6 TCD-BM cells and splenocytes from BL6 strains having different Thy1.1 or Thy1.2 isotypes were administered to lethally irradiated B10.BR mice. […] Donor splenocyte derived CD4+ (gray bars) and CD8+ (black bars) were quantified in the peripheral blood of recipient mice 2-4 months post-transplant.
B10.BR recipients were lethally irradiated and transplanted with 1×10^6 TCD-BM from CD45.1+ C57.BL6 donors. […] The fraction of blood T-cells derived from recipient, donor BM, and donor spleen were determined at day +27 post-transplant, using markers for T-cells (CD3), recipient-type cells (H2^k), donor-type cells (H2^b), and CD45.1/CD45.2 isoforms.
Recipient mice were irradiated 1 day prior to transplant using a ^137CS source at a rate of 1.24 Gy/min. […] The mice were monitored daily for survival; moribund animals were euthanized. […]

MCMV [3] = assay: Adoptive immunotherapy against MCMV lethality, 30x10^6 MCMV-immune lymphocytes, B/6 to F1 BMT; format: in vivo, mouse; settings: 30×10^6 immune lymphocytes; 2×10^4 PFU MCMV; P<0.001
Source text: Spleens were removed from either untreated PepBoy mice (naive donors), or those that had been inoculated with 10^5-10^6 PFU MCMV 2-4 months earlier (immune donors). Polyclonal splenocytes were harvested by perfusing spleens with sterile HBSS/FBS. […]

responder splenocytes = assay: Proliferative response to allo-antigen (MLR) and mitogen, thymidine incorporation; format: cell-based, mouse; settings: prior exposure to 20 μg/ml for 24 hours, vs control
Source text: A. Fludarabine attenuates the proliferative response of spleen cells to allogeneic stimulation (MLR) or mitogenic stimulation (con A). […] Strain combinations of DBA versus BL6 and BL6 versus DBA were used in the MLR experiments. CPM is expressed as percent of non-treated control.
4×10^6 cells/ml responder cells (either B10.BR, DBA/2, or Balb/c) were co-cultured with 2×10^6 irradiated (25 Gy) stimulator cells/ml (C57.BL6) in complete media with 10 U/ml IL-2 (Chiron Corporation, Emeryville, Calif.) and 10 ng/ml IL-7 (PeproTech Inc., Rocky Hill, N.J.) in 96 well plates. Proliferation was monitored by measuring DNA synthesis/thymidine incorporation. Cultures were pulsed with 1 uCi/well of tritiated thymidine (NEN Life Sciences, Boston, Mass.) on day 6, harvested onto filtermats using a Tomtec Harvester (Hamden, Conn.) on day 7, and read on MicroBeta TriLux counter (PerkinElmer, Inc., Gaithersburg, Md.).

B/6 to F1 BMT mice = assay: Lethality (GvHD) of 30x10^6 transferred lymphocytes without MCMV infection; format: in vivo, mouse; settings: 30×10^6 lymphocytes; n=20
Source text: FIGS. 9A-C. Adoptive immunotherapy to prevent MCMV lethality. Conditioned F1 recipients were infused with 5×10^6 TCD BM cells from B/6 donors. Some groups also received simultaneous infusions of 30×10^6 unselected splenocytes from B/6 donors previously infected with MCMV (immune). […] Following transplantation, mice were either infected with 2×10^4 PFU MCMV (A), or vehicle (B). Data from two separate experiments (n=20 mice per group) were combined for display and analysis. […] Survival was not improved when mice were infused with cultured (untreated) splenocytes (P>0.05). […]
To generate irradiated splenocytes for adoptive immunotherapy, cells were harvested after 24 hour culture and exposed to a single fraction of radiation from a ^137Cs source for a total of 7.5 Gy. […] The cells in a T75 tissue culture flask were then placed on a UVA (320-400 nm) illumination device with a nominal fluorescence of 7 mW (Cole Parmer, Vernon Hill, Ill.) and illuminated for 5 mins to achieve 3.0 J/cm^2 equivalent UVA dose. […]
One day prior to transplant, recipient F1 mice were conditioned using a ^137Cs source at a dose rate of 1.24 Gy/min. […] Mice were evaluated daily for morbidity and mortality. The development of clinical GvHD was prospectively monitored by weighing mice twice weekly, as well as observing for alopecia and/or ruffled fur, diarrhea, and decreased activity with a “hunched over” appearance. […]

[4] = test system: liver of B/6 to F1 BMT mice; assay: Histologic assessment of hepatic inflammation (GvHD) and MCMV inclusions; format: in vivo, mouse; settings: day +14
Source text: FIGS. 11A-H. S-59/UVA-treated lymphocytes decrease hepatic MCMV infection without producing GvHD. […] Some mice were infected with 5×10^4 PFU MCMV (B, D, F, G), while others were uninfected (A, C, E). At day +14, livers were harvested from surviving mice and prepared for histologic examination. […] Numerous typical cytomegalic inclusions can be appreciated in a higher power photomicrograph (G). […] In contrast, mice infused with S-59/UVA lymphocytes had normal-appearing hepatic architecture with minimal detectable inflammation whether they were infected (F) or not (E).
Mice were euthanized, and segments of liver were immersion-fixed in 10% formalin, embedded in paraffin, cut in 8 μm sections, and stained with hematoxylin and eosin. […] Typical eosinophilic intranuclear cytomegalic inclusion bodies were counted in 10 contiguous high-power fields (hpf) on each section as a marker of viral replication. […] The results were decoded, tabulated, and analyzed by another co-author (J.R.).
A sample of liver was also prepared for microscopic quantitation of MCMV-infected cells and hepatic inflammation. A trained anatomic pathologist (D.J.), blinded to sample identity, scored the sections for MCMV inclusions and hepatic portal inflammation. Representative photomicrographs are shown in FIGS. 11(A-G) and quantitative data analysis in FIG. 11H. […]

[5] = 20 μg/ml fludarabine, 24 hour culture, % compared to starting cell no., mean ± SEM, 4 experiments

Row | Compound | Decrease in the frequency of allo-reactive T-cells (alloreactive T-cells) [%] | Frequency of alloreactive cells in fludarabine treated culture (alloreactive T-cells; untreated culture 1/205) | % survival, immune splenocytes (MCMV [1]) [%] | Survivors/Total, immune splenocytes (MCMV [1]) | % survival, naive splenocytes (MCMV [1]) [%] | Survivors/Total, naive splenocytes (MCMV [1]) | Splenocyte viability, CD4+ T-cells (splenocytes; [5]) [%] | Splenocyte viability, CD8+ T-cells (splenocytes; [5]) [%] | Splenocyte viability, all leukocytes (splenocytes; [5]) [%] | Splenocyte viability, non T-cells (splenocytes; [5]) [%] | Splenocyte viability, all leukocytes (splenocytes; 20 μg/ml fludarabine, 24 hour culture, % compared to starting cell no., mean ± SEM, 4 experiments, listed as fludarabine) | T-cell viability after fludarabine culture (splenocytes; 20 μg/ml, 24 hr) | Viability of predominantly CD8+ cultured CTL's (splenocytes; activated, allo-stimulated CTL's, in contrast to naive spleen cells) | 40 day survival rate, pilot allogeneic transplant experiments [2] | Survival compared to mice that did not receive adoptive immunotherapy (MCMV [3]) | Decrease of proliferative response to concanavalin A (responder splenocytes; 10 μg/ml con A) [%] | Reduction of thymidine incorporation after stimulation with allogeneic antigen (MLR) (responder splenocytes; 7-day MLR) [%] | Mice that died without MCMV infection (B/6 to F1 BMT mice) | Portal inflammation score (scale 1-5) ([4]; MCMV infected) | Portal inflammation score (scale 1-5) ([4]; not MCMV infected)
1 | 9-beta-D-arabinosyl-2-fluoroadenine [Fludarabine] | 66 | 1/621 | 71 | 24/34 | 23 | 8/35 | 69.0 ± 9.9 | 62.1 ± 12.9 | 41.6 ± 7.8 | 33.6 ± 6.4 | approximately 42% | 60-70% | not affected | most favorable | significantly improved survival | 37 | 62 | – | – | –
2 | Cc1oc2c(C)c3oc(=O)cc(C)c3cc2c1COCCN [S-59] | – | – | 90 | 9/10 | 30 | 3/10 | – | – | – | – | – | – | – | – | significantly improved survival | – | – | none | 3.0 | 2.3
